The record followed here is ChEMBL document CHEMBL1134896, “Antileishmanial dinitroaniline sulfonamides with activity against parasite tubulin” (Bioorg Med Chem Lett, 2002).

The subject of test [1] is Leishmania donovani. Nature of the test: Inhibitory activity against Leishmania donovani promastigotes. Type of test: functional, organism-based.
For the next test, the system named is Leishmania sp. The test is described as follows: Percentage inhibition against Leishmania tubulin in vitro was determined at 20 uM. Type of test: functional.
Test [2] concerns Leishmania donovani. Nature of the test: Inhibitory activity against Leishmania donovani amastigotes. Type of test: functional, organism-based.

For the compound `CCCNS(=O)(=O)c1cc([N+](=O)[O-])c(N(CCC)CCC)c([N+](=O)[O-])c1`, the 50% inhibitory concentration (IC50) in the test with Leishmania donovani [1] is 56 µM; in the test with Leishmania donovani [2] it was 56.9 µM. In addition, the inhibition at 20 µM in the test on Leishmania sp. is 97%.

Consider `CCCNc1c([N+](=O)[O-])cc(S(N)(=O)=O)cc1[N+](=O)[O-]`, for which inhibition with Leishmania donovani [1] was half-maximal at 67 µM (IC50). Further, in the test with Leishmania sp., the inhibition at 20 µM stood at 43%.

`CCCN(CCC)c1c([N+](=O)[O-])cc(C(N)=O)cc1[N+](=O)[O-]` showed an IC50 in the test with Leishmania donovani [1] of 76.4 µM. The inhibition at 20 µM in the test with Leishmania sp. was found to be 34%.

As to `CCCN(CCC)c1c([N+](=O)[O-])cc(S(=O)(=O)Nc2ccccc2)cc1[N+](=O)[O-]`, the IC50 was found to be 14.7 µM in the test on Leishmania donovani [1] and 5.41 µM with Leishmania donovani [2]. In addition, the inhibition at 20 µM in the test with Leishmania sp. turned out to be 108%.

Consider `NS(=O)(=O)c1cc([N+](=O)[O-])c(N2CCOCC2)c([N+](=O)[O-])c1`, for which the IC50 in the test on Leishmania donovani [1] was above 100 µM. The inhibition at 20 µM in the test with Leishmania sp. was 21%.

Take `CCCCN(CCCC)c1c([N+](=O)[O-])cc(S(N)(=O)=O)cc1[N+](=O)[O-]`: the figures for the half-maximal inhibitory concentration (IC50) with Leishmania donovani [1] and in the test with Leishmania donovani [2] were 17.8 µM and 20.1 µM, respectively. Moreover, in the test on Leishmania sp., the inhibition at 20 µM came out at 89%.

For the compound `CCCCCCN(CCCCCC)c1c([N+](=O)[O-])cc(S(N)(=O)=O)cc1[N+](=O)[O-]`, the IC50 in the test with Leishmania donovani [1] was 12.2 µM; in the test on Leishmania donovani [2], 11.7 µM. Moreover, the inhibition at 20 µM in the test on Leishmania sp. turned out to be 48%.

In turn, `CCCN(CCC)c1c([N+](=O)[O-])cc(C#N)cc1[N+](=O)[O-]` displayed a half-maximal inhibitory concentration (IC50) in the test with Leishmania donovani [1] above 100 µM. Also, the inhibition at 20 µM in the test with Leishmania sp. was 25%.

Take `CCCN(CCC)c1ccc(S(N)(=O)=O)cc1[N+](=O)[O-]`: it took 89.8 µM to reach half-maximal inhibition in the test on Leishmania donovani [1] (IC50). Moreover, in the test on Leishmania sp., the inhibition at 20 µM is 19%.

In the test with Leishmania donovani [1], `CCN(CC)c1c([N+](=O)[O-])cc(S(N)(=O)=O)cc1[N+](=O)[O-]` showed an IC50 of 69.3 µM. Moreover, the inhibition at 20 µM in the test on Leishmania sp. was 58%.

Compound `CCCN(CCC)c1c([N+](=O)[O-])cc(C(=N)NO)cc1[N+](=O)[O-]` displayed an IC50 in the test with Leishmania donovani [1] above 100 µM. Also, the inhibition at 20 µM in the test with Leishmania sp. came out at 35%.

Regarding `CCCCCN(CCCCC)c1c([N+](=O)[O-])cc(S(N)(=O)=O)cc1[N+](=O)[O-]`, the IC50 with Leishmania donovani [1] worked out at 8.02 µM; in the test on Leishmania donovani [2] it was 9 µM. Besides, the inhibition at 20 µM in the test with Leishmania sp. amounted to 95%.

Regarding `NS(=O)(=O)c1cc([N+](=O)[O-])c(N2CCCC2)c([N+](=O)[O-])c1`, it took 97.1 µM to reach half-maximal inhibition with Leishmania donovani [1] (IC50). Besides, the inhibition at 20 µM in the test on Leishmania sp. was determined as 57%.

Turning to `CCCN(CCC)c1c([N+](=O)[O-])cc(S(N)(=O)=O)cc1[N+](=O)[O-]` [ORYZALIN], the half-inhibitory concentration (IC50) was 44.1 µM with Leishmania donovani [1] and 72.5 µM in the test on Leishmania donovani [2]. For the same compound, the inhibition at 20 µM in the test on Leishmania sp. was 54%.

In the case of `N=C(N)c1ccc(OCCCCCOc2ccc(C(=N)N)cc2)cc1` [PENTAMIDINE], the IC50 with Leishmania donovani [1] was determined as 1.61 µM; in the test on Leishmania donovani [2], 2 µM.

What is called IC50 is the midpoint of a concentration-inhibition curve. High values mean weaker potency, low ones greater potency. As a reminder, the inhibition is the relative decrease from the control value, in per cent.
